# Laboratory results: US20220390432A1, “METHODS OF CHARACTERIZING AND UTILIZING AGENT-CONDENSATE INTERACTIONS” (Whitehead Institute for Biomedical Research, priority 2019, published 2022)
# Entries after “also recorded” stand apart in the source; their conditions may differ.
# What was measured:
# Type in all cases: binding
# [1] = molecular target: T1, MED1 aromatic mutant (Homo sapiens, UniProt Q15648, F1031A/F1273A/F1351A/F1564A/F657A/F708A/F713A/F724A/F821A/F826A/F858A/F859A/F865A/F878A/F883A/F895A/F898A/F920A/F931A/W1533A/Y1083A/Y1132A/Y1431A/Y1456A/Y1476A/Y1492A/Y661A/Y752A/Y835A/Y882A); assay: In vitro droplet assay with MED1 aromatic mutant; conditions: 10% PEG, 125 mM NaCl, 10 μM protein, 5 μM small molecule
# T1 construct: MED1—aromatic mutant amino acids 600-1581, all aromatic residues changed to alanine; 6xHis (N); made in house; host or cells: LOBSTR cells (E. coli)
# Experimental: MED1—aromatic mutant amino acids 600-1581, all aromatic residues changed to alanine.
# (§1) Recombinant BFP, GFP, or mCherry fusion proteins were concentrated and desalted to an appropriate protein concentration and 125 mM NaCl using Amicon Ultra centrifugal filters (30K MWCO, Millipore). Recombinant protein was added too. […] The protein solution was immediately loaded onto glass bottom 384 well plate (Cellvis P384-1.5H-N) and imaged with an Andor confocal microscope with a 150× objective. Unless indicated, images presented are of droplets settled on the glass coverslip.
# To analyze in vitro droplet experiments, custom Python scripts using the scikit-image package were written to identify droplets and characterize their size, shape and intensity. […] After segmentation, mean intensity for each droplet was calculated while excluding pixels near the phase interface, and background-corrected by subtracting intensity of dark images of droplet formation buffer only. Droplets identified in the channel of the fluorescent protein from ten independent fields of view were quantified for each experiment. The maximum intensity of signal within the droplets was calculated for each channel, the maximum intensity in the drug channel was termed “maximum drug intensity”. […]
# [2] = molecular target: T2, MED1 condensates (Homo sapiens, UniProt Q15648); assay: Determination of partitioning by spectrophotometry and quantitative phase microscopy
# T2 construct: MED1—amino acids 600-1581; 6xHis (N); made in house; host or cells: LOBSTR cells (E. coli)
# Text: Here, an expression is derived briefly for the partition coefficient of a client molecule into a condensed phase in terms of quantities that are readily measurable experimentally. A sample composed of two coexisting phases is considered, named dilute and condensed, with volume fractions ϕdilute and […]. If a client molecule (e.g. a drug) is also present in the sample at an average concentration of ctotal, then mass conservation requires that
# the ratio is estimated ctotal/cdilute from fluorescence spectroscopy measurements, as described in a subsequent section, while ϕcond, it is inferred from the lever rule (M. Rubinstein, R. H. Colby, Polymer Phyics (Oxford University Press, 2003) as follows: denoting the concentration of scaffold protein (e.g. MED1) by s, mass conservation gives stotal=sdiluteϕdilute+scondϕcond, in analogy with Eq. 1. Again using the requirement that the volume fractions of coexisting phases sum to 1, this can be rearranged to yield
# where stotal and sdilute are measured spectrophotometrically from optical absorbance at 280 nm, and scond is measured from quantitative phase microscopy, using a coherence-controlled holographic microscope (Q-Phase, Telight (formerly TESCAN), Bmo, CZ) equipped with 40× dry objectives (NA=0.90). […]
# where A is the measured absorbance (in Absorbance Units (AU)), I0 is the intensity of the incident light at a given wavelength, I is the transmitted intensity, L the path length through the sample, and c the concentration of the absorbing species. […] The partitioned drug was measured by using spin down assay. […] The supernatant was collected and measured the concentrations of the drug. The partitioned drug was calculated by subtracting from the total known concentration of drug added.
# Quantitative phase measurements were performed using a coherence-controlled holographic microscope (Q-Phase, Telight (formerly TESCAN), Brno, CZ) equipped with 40× dry objectives (NA=0.90) as follows. […]
# Q-PHASE software was used to construct compensated phase images from acquired holograms, which were subsequently analyzed in MATLAB using custom code. […]
# [3] = molecular target: T2, MED1 condensates; assay: FRAP of in vitro droplets with drug; conditions: 5 μM TR-cisplatin, 10 μM protein, 125 mM NaCl, 10% PEG
# Experimental: For FRAP of in vitro droplets, 5 pulses of laser at a 50 us dwell time was applied to the MED1 channel and 20 pulses of laser at a 100 μs dwell time was applied to the Cisplatin channel. Recovery was imaged on an Andor microscope every 1 s for the indicated time periods. Fluorescence intensity was measured using FIJI. Post bleach FRAP recovery data was averaged over 6 replicates for each channel.
# [4] = molecular target: T3, MED1 (Homo sapiens, UniProt Q15648); assay: In vitro droplet assay, small molecule partitioning into MED1 condensates; conditions: confocal fluorescence; Example 2: 125 mM NaCl, 10% PEG, 10 μM protein; fluorescent or fluorescently labeled drug
# T3 construct: MED1—amino acids 600-1581; 6xHis (N); made in house; host or cells: LOBSTR cells (E. coli)
# Experimental: as §1
# Drug and small molecule concentrations used in the droplet experiments are as follows:
# To analyze in vitro droplet experiments, custom Python scripts using the scikit-image package were written to identify droplets and characterize their size, shape and intensity. Droplets were segmented from average images of captured channels on various criteria: (1) an intensity threshold that was three s.d. above the mean of the image; (2) size thresholds (20 pixel minimum droplet size); and (3) a minimum circularity (circularity=4π·areaperimeter2) (circularity=4π·areaperimeter2) of 0.8 (1 being a perfect circle). After segmentation, mean intensity for each droplet was calculated while excluding pixels near the phase interface, and background-corrected by subtracting intensity of dark images of droplet formation buffer only. Droplets identified in the channel of the fluorescent protein from ten independent fields of view were quantified for each experiment. The maximum intensity of signal within the droplets was calculated for each channel, the maximum intensity in the drug channel was termed “maximum drug intensity”. To obtain the intensity of drug or dye alone in the diffuse state (termed “diffuse drug intensity”), the compound was added to droplet formation buffer at same concentration used in the droplet assay. This was then imaged on a confocal fluorescent microscope. The resulting image was processed in FIJI to obtain the fluorescent intensity of the field. To obtain the fluorescent intensity of protein droplets that bleed through in the drug channel (termed “background intensity”) protein droplets were imaged in the fluorescent channel in which the drug fluoresces and processed as above to obtain the average maximum intensity within the droplet across 10 images. The enrichment ratio was obtained by the following formula [(maximum drug intensity)−(background intensity)]/(diffuse drug intensity). The box plots show the distributions of all droplets. Each dot represents an individual droplet.
# T2 sequence (Q15648 600-1581): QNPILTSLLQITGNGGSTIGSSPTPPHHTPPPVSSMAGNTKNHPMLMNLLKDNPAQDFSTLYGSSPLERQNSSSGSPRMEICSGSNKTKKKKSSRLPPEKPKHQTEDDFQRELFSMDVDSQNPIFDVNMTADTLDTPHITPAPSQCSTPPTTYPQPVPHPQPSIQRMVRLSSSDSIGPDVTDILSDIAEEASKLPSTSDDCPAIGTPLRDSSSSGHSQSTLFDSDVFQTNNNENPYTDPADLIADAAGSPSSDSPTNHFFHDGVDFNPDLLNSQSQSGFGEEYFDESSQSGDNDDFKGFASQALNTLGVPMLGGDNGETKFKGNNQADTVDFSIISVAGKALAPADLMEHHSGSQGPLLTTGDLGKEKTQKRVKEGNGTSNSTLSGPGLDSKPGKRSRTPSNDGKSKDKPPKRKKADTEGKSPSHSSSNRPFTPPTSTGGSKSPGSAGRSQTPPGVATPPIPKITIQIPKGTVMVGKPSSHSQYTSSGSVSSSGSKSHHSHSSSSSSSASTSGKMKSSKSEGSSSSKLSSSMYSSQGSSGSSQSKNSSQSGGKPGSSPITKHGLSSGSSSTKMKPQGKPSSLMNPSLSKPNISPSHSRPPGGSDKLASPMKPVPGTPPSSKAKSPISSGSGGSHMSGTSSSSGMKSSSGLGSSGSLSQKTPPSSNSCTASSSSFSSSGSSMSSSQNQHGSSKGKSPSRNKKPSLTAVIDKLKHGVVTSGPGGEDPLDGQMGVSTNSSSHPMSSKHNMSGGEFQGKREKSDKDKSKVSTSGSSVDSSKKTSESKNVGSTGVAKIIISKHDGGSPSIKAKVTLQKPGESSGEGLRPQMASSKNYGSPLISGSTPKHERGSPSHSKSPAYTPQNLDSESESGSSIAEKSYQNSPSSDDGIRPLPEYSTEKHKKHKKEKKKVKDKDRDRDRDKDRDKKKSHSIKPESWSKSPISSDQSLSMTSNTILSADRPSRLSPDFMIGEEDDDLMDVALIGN
# T3 sequence (Q15648 600-1581): as above
smiles,measurement,setting,value
N.N.[Cl][Pt][Cl] [cisplatin],partitioning into MED1 aromatic mutant droplets,[1],no longer partitioned; also recorded: substantially reduced
same,partition coefficient in MED1 droplets,[2],up to 600
same,partition ratio in MED1 condensates,[2]; uv spectroscopy of drug remaining in solution plus condensate volume estimate,up to 600 fold
same,mobility in MED1 droplets (FRAP),[3],highly mobile
same,partitioning / incorporation into MED1 droplets,[4],selectively concentrated in MED1 droplets
